{"source": "BindingDB's records for doi:10.1111/cbdd.12751", "about": "(Shandong University, 2016)"}
{"target": "Gag-Pol polyprotein (Human immunodeficiency virus type 1 group M subtype B (isolate NY5), UniProt P12497)", "experiment": "HIV-1 RT Inhibition Assay", "conditions": "37 °C", "method": "A reverse transcriptase (RT) assay kit produced by Roche was selected for the RT inhibition assay. All the reagents for performing the RT reaction came with the kit, and the ELISA procedures for RT inhibition assay were carried out following the description in the kit protocol. Briefly, the reaction mixture containing template/primer complex, viral nucleotides (dNTPs), and RT in the incubation buffer with or without inhibitors was incubated for 1 h at 37 °C. After that, the reaction mixture was transferred to a streptavidincoated microtiter plate and incubated for another 1 h at 37 °C to make sure that retranscriptional cDNA chain consisted of biotin-labeled dNTPs bound to streptavidin. Then, unbound dNTPs were removed using washing buffer and anti-DIG-POD working solution was added. After incubation for 1 h at 37 °C, the DIG-labeled dNTPs incorporated into cDNA were bound to the anti-DIG-POD antibody. The unbound anti-DIG-PODs were removed.", "units": {"IC50": "nM"}}
{"smiles": "Cc1ccnc2c1NC(=O)c1cccnc1N2C1CC1", "note": "[BI-RG-587]", "IC50": 690}
{"smiles": "NS(=O)(=O)c1ccc(NC(=O)CSc2nc3ncccc3n2-c2ccc(C3CC3)c3ccccc23)c(Br)c1", "note": "[N-(2-Bromo-4-sulfonamido-phenyl)-2-(1-(4-cyclopropylnaphthalen-1-yl)-1H-imidazo[4,5-b]pyridin-2-ylthio)acetamide (12)]", "IC50": 1500}
{"smiles": "Cc1cc(C#N)cc(C)c1Oc1nc(Nc2ccc(C#N)cc2)nc(N)c1Br", "IC50": 370}
